In patent US11098010B2 (priority 2017, dated 2021):
Where a name gives a salt, the structure may show the parent alone.

Test system: HBV rcDNA in HepDE19 cells
Assay: HepDE19 assay with bDNA quantitation of HBV rcDNA
Assay type: cell-based, hepatitis B virus (HBV)
Settings: HepDE19 cells, inhibition of rcDNA formation, 7 day incubation, top concentration 25 μM; read-out: DE-19 bDNA EC50

SMILES	EC50 [µM]
COC(=O)NC1c2c(F)ccc(C(=O)Nc3ccc(F)c(Cl)c3)c2CC1(C)C (stereo not shown) [Compound 121, O-Methyl, N-(4-((3-chloro-4-fluorophenyl)carbamoyl)-7-fluoro-2,2-dimethyl-2,3-dihydro-1H-inden-1-yl) carbamate]	> 25
O=C(NC1CSc2c(C(=O)Nc3ccc(F)c(F)c3)cccc21)OCc1ccccn1 (stereo not shown) [Compound 27, O-pyridin-2-ylmethyl, N-(7-((3,4-difluorophenyl)carbamoyl)-2,3-dihydrobenzo[b]thiophen-3-yl) carbamate]	1.4
O=C(NC1CSc2c(C(=O)Nc3ccc(F)c(Cl)c3)cccc21)OCc1ccccn1 (stereo not shown) [Compound 35, O-Pyridin-2-ylmethyl, N-(7-((3-chloro-4-fluorophenyl)carbamoyl)-2,3-dihydrobenzo[b]thiophen-3-yl) carbamate]	0.78
O=C(N[C@@H]1c2cccc(C(=O)Nc3ccc(F)c(F)c3)c2C[C@H]1O)OCc1ccccn1 [Compound 60, O-pyridin-2-ylmethyl, N-((1R,2R)-4-((3,4-difluorophenyl)carbamoyl)-2-hydroxy-2,3-dihydro-1H-inden-1-yl) carbamate]	> 25
O=C(NC1CSc2c(C(=O)Nc3ccc(F)c(Cl)c3)ccc(F)c21)OCc1ccccn1 (stereo not shown) [Compound 65, O-Pyridin-2-ylmethyl, N-(7-((3-chloro-4-fluorophenyl)carbamoyl)-4-fluoro-2,3-dihydrobenzo[b]thiophen-3-yl) carbamate]	> 25

Same assay, conditions: Hepatitis B virus, HepDE19, 168 h, HepDE19 cells, inhibition of rcDNA formation, 7 day incubation, top concentration 25 μM; read-out: DE-19 bDNA EC50

SMILES	EC50 [µM]
O=C(N[C@H]1CCc2c(C(=O)Nc3ccc(F)c(Cl)c3)ccc(F)c21)O[C@@H]1CCOC1 [Compound 170, O—(R)-Tetrahydrofuran-3-yl, N—((S)-4-((3-chloro-4-fluorophenyl)carbamoyl)-7-fluoro-2,3-dihydro-1H-inden-1-yl) carbamate]	0.26
[2H]C([2H])(OC(=O)N[C@H]1CCc2c(C(=O)Nc3ccc(F)c(Cl)c3)ccc(F)c21)c1ncn(C([2H])([2H])[2H])n1 [Compound 252, O-((1-(Methyl-d3)-1H-1,2,4-triazol-3-yl)methyl-d2, N—(S)-(4-((3-chloro-4-fluorophenyl)carbamoyl)-7-fluoro-2,3-dihydro-1H-inden-1-yl) carbamate]	0.13
O=C1C[C@H](OC(=O)N[C@H]2CCc3c(C(=O)Nc4ccc(F)c(Cl)c4)ccc(F)c32)CN1 [Compound 166, O—(S)-5-Oxopyrrolidin-3-yl, N—((S)-4-((3-chloro-4-fluorophenyl)carbamoyl)-7-fluoro-2,3-dihydro-1H-inden-1-yl) carbamate]	0.14
O=C(Nc1ccc(F)c(Cl)c1)c1ccc(F)c2c1CC[C@@H]2NS(=O)(=O)Cc1ccccc1 [Compound 222, (S)—N-(3-Chloro-4-fluorophenyl)-7-fluoro-1-((phenylmethyl)sulfonamido)-2,3-dihydro-1H-indene-4-carboxamide]	0.3
O=C(Nc1ccc(F)c(Cl)c1)c1ccc(F)c2c1CC[C@@H]2Nc1ncc(O)cn1 [Compound 186, (S)-N-(3-chloro-4-fluorophenyl)-7-fluoro-1-((5-hydroxypyrimidin-2-yl)amino)-2,3-dihydro-1H-indene-4-carboxamide]	1.6
CNC(=O)NC1CC(C)(C)c2c(C(=O)Nc3ccc(F)c(Cl)c3)ccc(F)c21 (stereo not shown) [Compound 241, N-(3-chloro-4-fluorophenyl)-7-fluoro-3,3-dimethyl-1-(3-methylureido)-2,3-dihydro-1H-indene-4-carboxamide]	24
O=C(Nc1ccc(F)c(Cl)c1)c1ccc(F)c2c1CCS2(=O)=O [Compound 272, N-(3-Chloro-4-fluorophenyl)-7-fluoro-2,3-dihydrobenzo[b]thiophene-4-carboxamide 1,1-dioxide]	0.22
O=C(Nc1ccc(F)c(Cl)c1)c1ccc(F)c2c1CC[C@@H]2NS(=O)(=O)N1CCOCC1 [Compound 228, (S)—N-(3-Chloro-4-fluorophenyl)-7-fluoro-1-(morpholine-4-sulfonamido)-2,3-dihydro-1H-indene-4-carboxamide]	0.2
O=C(Nc1ccc(F)c(Cl)c1)c1ccc(F)c2c1CC[C@@H]2NS(=O)(=O)CC1CC1 [Compound 221, (S)—N-(3-Chloro-4-fluorophenyl)-1-((cyclopropylmethyl)sulfonamido)-7-fluoro-2,3-dihydro-1H-indene-4-carboxamide]	0.21
CNC(=O)O[C@H]1CCc2c(C(=O)Nc3ccc(F)c(Cl)c3)ccc(F)c21 [Compound 89, O—(S)-4-((3-Chloro-4-fluorophenyl)carbamoyl)-7-fluoro-2,3-dihydro-1H-inden-1-yl, N-methyl Carbamate]	0.56

Same assay, conditions: Hepatitis B virus, HepDE19, 168 h, read-out: DE-19 bDNA EC50 (μM), HepDE19 cells, inhibition of rcDNA formation, 7 day incubation, top concentration 25 μM

SMILES	EC50 [µM]
N#Cc1cc(NC(=O)c2ccc(F)c3c2CC[C@@H]3NC(=O)OCc2ccccn2)ccc1F [Compound 126, O-Pyridin-2-ylmethyl, N—(S)-(4-((3-cyano-4-fluorophenyl)carbamoyl)-7-fluoro-2,3-dihydro-1H-inden-1-yl)carbamate Hydrochloride]	0.24
Cn1ccc(CNC(=O)N[C@H]2CCc3c(C(=O)Nc4ccc(F)c(Cl)c4)ccc(F)c32)n1 [Compound 194]	0.16
O=C(N[C@H]1CCc2c(C(=O)Nc3ccc(F)c(Cl)c3)ccc(F)c21)OCc1ccon1 [Compound 82, O-Isoxazol-3-ylmethyl, N—(S)-(4-((3-chloro-4-fluorophenyl)carbamoyl)-7-fluoro-2,3-dihydro-1H-inden-1-yl) carbamate]	0.13
CNC(=O)N[C@@H]1c2cccc(C(=O)Nc3ccc(F)c(Cl)c3)c2C[C@H]1OC [Compound 165, (1R,2R)—N-(3-Chloro-4-fluorophenyl)-2-methoxy-1-(3-methylureido)-2,3-dihydro-1H-indene-4-carboxamide]	0.33
O=C(N[C@H]1CCc2c(C(=O)Nc3ccc(F)c(C(F)F)c3)ccc(F)c21)OCc1ccccn1 [Compound 148, O-Pyridin-2-ylmethyl, N—(S)-(4-((3-(difluoromethyl)-4-fluorophenyl)carbamoyl)-7-fluoro-2,3-dihydro-1H-inden-1-yl)carbamate Hydrochloride]	0.12
O=C(N[C@H]1CCc2c(C(=O)Nc3ccc(F)c(Cl)c3)ccc(F)c21)OCc1ccc2ccccc2n1 [Compound 151, O-Quinolin-2-ylmethyl, N—(S)-(4-((3-chloro-4-fluorophenyl)carbamoyl)-7-fluoro-2,3-dihydro-1H-inden-1-yl) carbamate]	0.41
CC(C)(C)OC(=O)N1CC(F)(F)CC1COC(=O)N[C@H]1CCc2c(C(=O)Nc3ccc(F)c(Cl)c3)ccc(F)c21 (stereo partly drawn) [Compound 54, tert-Butyl 2-(((((S)-4-((3-chloro-4-fluorophenyl)carbamoyl)-7-fluoro-2,3-dihydro-1H-inden-1-yl)carbamoyl)oxy)methyl)-4,4-difluoropyrrolidine-1-carboxylate]	0.99
O=C(N[C@H]1CCc2c(C(=O)Nc3ccc(F)c(Cl)c3)ccc(F)c21)OC[C@H]1COCCN1 [Compound 139, O—((R)-Morpholin-3-yl)methyl, N—((S)-4-((3-chloro-4-fluorophenyl)carbamoyl)-7-fluoro-2,3-dihydro-1H-inden-1-yl) carbamate Hydrochloride]	0.62
O=C(N[C@H]1CCc2c(C(=O)Nc3ccc(F)c(Cl)c3)ccc(F)c21)OCCCN1CCCC1=O [Compound 86, O-3-(2-Oxopyrrolidin-1-yl)propyl, N—(S)-(4-((3-chloro-4-fluorophenyl)carbamoyl)-7-fluoro-2,3-dihydro-1H-inden-1-yl) carbamate]	0.43
CC(=O)NCCOC(=O)N[C@H]1CCc2c(C(=O)Nc3ccc(F)c(Cl)c3)ccc(F)c21 [Compound 157, O-2-Acetamidoethyl, N—(S)-(4-((3-chloro-4-fluorophenyl)carbamoyl)-7-fluoro-2,3-dihydro-1H-inden-1-yl) carbamate]	0.26
O=C(N[C@H]1CCc2c(C(=O)Nc3ccc(F)c(Cl)c3)ccc(F)c21)OCc1cccc(C(F)(F)F)n1 [Compound 168, O-(6-(Trifluoromethyl)pyridin-2-yl)methyl, N—(S)-(4-((3-chloro-4-fluorophenyl)carbamoyl)-7-fluoro-2,3-dihydro-1H-inden-1-yl) carbamate]	0.62
O=C(Nc1cccnc1)N[C@H]1CCc2c(C(=O)Nc3ccc(F)c(Cl)c3)ccc(F)c21 [Compound 144, (S)—N-(3-Chloro-4-fluorophenyl)-7-fluoro-1-(3-(pyridin-3-yl)ureido)-2,3-dihydro-1H-indene-4-carboxamide]	0.85
COc1ccc(Cn2ccc3cnc(N[C@H]4CCc5c(C(=O)Nc6ccc(F)c(Cl)c6)ccc(F)c54)nc32)cc1 [Compound 197, (S)—N-(3-Chloro-4-fluorophenyl)-7-fluoro-1-((7-(4-methoxybenzyl)-7H-pyrrolo[2,3-d]pyrimidin-2-yl)amino)-2,3-dihydro-1H-indene-4-carboxamide]	1.2

Same assay, conditions: read-out: DE-19 bDNA EC50; HepDE19 cells, inhibition of rcDNA formation, 7 day incubation, top concentration 25 μM

SMILES	EC50 [µM]
COC(=O)NC1CSc2c(C(=O)Nc3ccc(F)c(Cl)c3)ccc(F)c21 (stereo not shown) [Compound 59, O-Methyl, N-(7-((3-chloro-4-fluorophenyl)carbamoyl)-4-fluoro-2,3-dihydrobenzo[b]thiophen-3-yl) carbamate]	12
COC(=O)NC1CSc2c(C(=O)Nc3ccc(F)c(F)c3)cccc21 (single isomer, unassigned) [Compound 30, O-Methyl, N-(7-((3,4-difluorophenyl)carbamoyl)-2,3-dihydrobenzo[b]thiophen-3-yl)carbamate]	1.8
O=C(N[C@H]1CCc2c(C(=O)Nc3ccc(F)c(Cl)c3)ccc(F)c21)OC1CCC(O)CC1 (stereo partly drawn) [Compound 156, O-trans-4-Hydroxycyclohexyl, N—((S)-4-((3-chloro-4-fluorophenyl)carbamoyl)-7-fluoro-2,3-dihydro-1H-inden-1-yl) carbamate]	0.22
